Experimental data reported in ChEMBL document CHEMBL1153013, “Bio-active compounds from Euphorbia cornigera Boiss” (2009).
In brackets after ≈: the same amount, converted by molar mass.

System: Biomphalaria glabrata
Assay: Molluscicidal activity against Biomphalaria glabrata after 24 hrs
Type: functional

| Compound | LC50 [µg/mL] |
| --- | --- |
| C/C=C(\C)C(=O)O[C@H]1C(C)=C[C@]23C(=O)[C@@H](C=C(COC(=O)c4ccccc4NC(=O)c4ccccc4N)[C@@H](OC(C)=O)[C@]12O)[C@H]1[C@@H](C[C@H]3C)C1(C)C | 0.0615 (≈ 0.0865 µM) |
| O=C(Nc1ccc([N+](=O)[O-])cc1Cl)c1cc(Cl)ccc1O [NICLOSAMIDE] | 0.025 (≈ 0.0764 µM) |
| C/C=C(\C)C(=O)OCC1=C[C@@H]2C(=O)[C@]3(C=C(C)[C@H](OC(C)=O)[C@@]3(O)[C@@H]1OC(=O)c1ccccc1NC(=O)c1ccccc1N)[C@H](C)C[C@@H]1[C@H]2C1(C)C | 0.0145 (≈ 0.0204 µM) |
| C/C=C(\C)C(=O)O[C@H]1C(C)=C[C@]23C(=O)[C@@H](C=C(COC(C)=O)[C@@H](OC(=O)c4ccccc4NC(=O)c4ccccc4N)[C@]12O)[C@H]1[C@@H](C[C@H]3C)C1(C)C | 0.0754 (≈ 0.106 µM) |
| CC(=O)O[C@H]1C(C)=C[C@]23C(=O)[C@@H](C=C(COC(=O)c4ccccc4NC(=O)c4ccccc4N)[C@@H](O)[C@]12O)[C@H]1[C@@H](C[C@H]3C)C1(C)C | 0.0192 (≈ 0.0305 µM) |
| C/C=C(\C)C(=O)O[C@@H]1C(COC(=O)c2ccccc2NC(=O)c2ccccc2N)=C[C@@H]2C(=O)[C@]3(C=C(C)[C@H](OC(C)=O)[C@@]13O)[C@H](C)C[C@@H]1[C@H]2C1(C)C | 0.0155 (≈ 0.0218 µM) |
| C/C=C(\C)C(=O)OCC1=C[C@@H]2C(=O)[C@]3(C=C(C)[C@H](OC(=O)c4ccccc4NC(=O)c4ccccc4N)[C@@]3(O)[C@@H]1OC(C)=O)[C@H](C)C[C@@H]1[C@H]2C1(C)C | 0.0125 (≈ 0.0176 µM) |
| CC(=O)OCC1=C[C@@H]2C(=O)[C@]3(C=C(C)[C@H](OC(=O)c4ccccc4NC(=O)c4ccccc4N)[C@@]3(O)[C@@H]1OC(C)=O)[C@H](C)C[C@@H]1[C@H]2C1(C)C | 0.0114 (≈ 0.017 µM) |
| CC(=O)OCC1=C[C@@H]2C(=O)[C@]3(C=C(C)[C@H](OC(C)=O)[C@@]3(O)[C@@H]1OC(=O)c1ccccc1NC(=O)c1ccccc1N)[C@H](C)C[C@@H]1[C@H]2C1(C)C | 0.0183 (≈ 0.0273 µM) |
| C/C=C(\C)C(=O)O[C@@H]1C(COC(C)=O)=C[C@@H]2C(=O)[C@]3(C=C(C)[C@H](OC(=O)c4ccccc4NC(=O)c4ccccc4N)[C@@]13O)[C@H](C)C[C@@H]1[C@H]2C1(C)C | 0.0135 (≈ 0.019 µM) |
| CC(=O)OCC1=C[C@@H]2C(=O)[C@]3(C=C(C)[C@H](OC(=O)c4ccccc4NC(=O)c4ccccc4N)[C@@]3(O)[C@@H]1O)[C@H](C)C[C@@H]1[C@H]2C1(C)C | 0.0143 (≈ 0.0227 µM) |
